From patent EP1210336B1, “SUBSTITUTED BENZIMIDAZOLES AS NON-NUCLEOSIDE INHIBITORS OF REVERSE TRANSCRIPTASE” (THE UNITED STATES OF AMERICA, as represented by the …, priority 1999, dated 2001)
Several values for one entry are separate records, joined by “and”; a condition that tells them apart may be missing. Equal entries are not always repeated. Where two headings read alike, the source gives them in different places.

Tests used:
HIV-1 WT RT = biological target: T1, HIV-1 WT RT (Human immunodeficiency virus type 1 group M subtype B, UniProt P03366); assay: biochemical; details: for inhibition at 1 µM: read-out: %inhibn (1µM)
T1 construct: purified RT protein (0.015 mg/mL) was incubated in a 100 µL reaction mixture

WT virus (NL4-3) = assay: microbe, parasite or virus in culture; assay type: cell-based, HIV-1
In short: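 CEM-SS cells (5 x 10^3/well) infected with HIV-1 at an MOI giving complete killing by day 6 (e.g., 0.01-0.05), with serial half-log compound dilutions in triplicate. After 6 days at 37°C, viability read by XTT reduction at 450 nm. CIC50 derived from protection against cytopathic killing.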

NL4-3 (WT) = assay: Cytopathic cell killing assay, cross-resistance profile, infected MT-4 cells; assay type: cell-based, HIV-1
Source text: (§1) The various HIV isolates tested in the Figures are those corresponding to wild-type virus (NL4-3) and the other strains listed by their RT mutations. The three 4xAZT isolates included in the Figures represent AZT drug-resistant variants. For example, the 4xAZT/L100I isolate has five mutations: four mutations confer increased resistance to AZT, and the other mutation is located within the NNRTI binding pocket. TZB and nevir. (nevirapine) are two well-known NNRTIs, included in this experiment for comparison purposes. […]
(§2) In this Example, the antiviral and cellular toxicity of NNRTIs was investigated, using the cytopathic cell killing assay described by Yang (Yang et al., "Characteristics of a Group of Non-nucleoside Reverse Transcriptase Inhibitors with Structural Diversity and Potent Anti-Human Immunodeficiency Virus Activity," Leukemia 9:S75-S85 [1995]). Briefly, in this method cells (e.g., the CEM-SS cell line, available from the NIAID AIDS Research and Reference Program [ARRRP]) were seeded at a density of 5 x 10^3 cells/well, into the wells of a 96-well microtiter plate. The cells were then infected with HIV virus (either mutant or WT), at a multiplicity of infection (MOI) previously determined to provide complete cell killing by 6 days of culture post-infection (e.g., MOI of 0.01-0.05). Each of the HIV isolates was pre-titered to induce equivalent levels of infection based on cell killing or virus production, prior to their use in these assays. A range of test compound concentrations was added to the wells in triplicate (e.g., serial half-log dilutions) to evaluate inhibition of HIV infection. Controls for each assay included drug controls (drug colorimetric control wells), drug cytotoxicity control wells (cells with drug), virus control wells (cells with virus), and cell viability controls (cells only). Positive control drugs (e.g., AZT and ddC) were also run in parallel.
(§3) After six days of incubation at 37°C, cell viability was determined spectrophotometrically at 450 nm for each well, using the metabolic reduction of XTT to a soluble colored formazan. (See, Gartner and Popovic, "Virus Isolation and Production, in Aldovini and Walker (eds.), Techniques in HIV Research, Stockton Press, NY, pp. […] [1991]; and Nara and Fischinger, "Quantitative Infectivity Assay for HIV-1 and HIV-2," Nature 332:469-470 [1988]).
(§4) The in vitro therapeutic index (TI50) was defined as the fold-difference between the EC50 and IC50. The results for the various compounds are included in Figures 8 and 19.

[1] = system: HIV-1 isolate 4xAZT/Y181C; assay: as above; assay type: cell-based
Source text: as §1, §2, §3, §4

HIV-1 isolate 4xAZT = assay: as above; assay type: cell-based
Source text: as §1, §2, §3, §4

HIV-1 variant A98G = assay: as above; assay type: cell-based
Source text: as §1, §2, §3, §4

HIV-1 variant K101E = assay: as above; assay type: cell-based; details: isolate K101E
Source text: as §1, §2, §3, §4

HIV-1 variant K103N = assay: as above; assay type: cell-based; details: for EC50: isolate K103N
Source text: as §1, §2, §3, §4

HIV-1 variant L100I = assay: as above; assay type: cell-based
Source text: as §1, §2, §3, §4

HIV-1 variant L74V = assay: as above; assay type: cell-based
Source text: as §1, §2, §3, §4

HIV-1 variant M184l = assay: as above; assay type: cell-based
Source text: as §1, §2, §3, §4

HIV-1 variant V106A = assay: as above; assay type: cell-based
Source text: as §1, §2, §3, §4

HIV-1 variant V108I = assay: as above; assay type: cell-based
Source text: as §1, §2, §3, §4

HIV-1 variant V179D = assay: as above; assay type: cell-based
Source text: as §1, §2, §3, §4

HIV-1 variant Y188C = assay: as above; assay type: cell-based
Source text: as §1, §2, §3, §4

HIV-1 variant Y188H = assay: as above; assay type: cell-based
Source text: as §1, §2, §3, §4

[2] = system: HIV-1 isolate 4xAZT/L100I; assay: as above; assay type: cell-based
Procedure: The various HIV isolates tested in the Figures are those corresponding to wild-type virus (NL4-3) and the other strains listed by their RT mutations. The three 4xAZT isolates included in the Figures represent AZT drug-resistant variants. […]
as §2, with “Briefly,” for “In this Example, the antiviral and cellular toxicity of NNRTIs was investigated, using the cytopathic cell killing assay described by Yang (Yang et al., "Characteristics of a Group of Non-nucleoside Reverse Transcriptase Inhibitors with Structural Diversity and Potent Anti-Human Immunodeficiency Virus Activity," Leukemia 9:S75-S85 [1995]). Briefly,”
as §3
The in vitro therapeutic index (TI50) was defined as the fold-difference between the EC50 and IC50.

HIV-1 variant Y181C = assay: as above; assay type: cell-based
Source text: as §1, §2, §3, §4

[3] = Table 7, HIV-1 WT RT, read-out: IC50
[4] = Table 7, WT HIV-1 RT, 1 µM drug
[5] = Table 11, WT RT, read-out: IC50
[6] = Human immunodeficiency virus 1, NL43, CEM-SS, Table 7, concentration reducing cell killing or virus production by 50%, HIV-1 WT, read-out: EC50
[7] = Human immunodeficiency virus 1, NL43, MT4, Table 8, isolate N1.43
[8] = Human immunodeficiency virus 1, NL43, MT4, Table 10 (values in µM), isolate NL4-3 (WT)
[9] = Human immunodeficiency virus 1, MT4, Table 8
[10] = Human immunodeficiency virus 1, MT4, Table 10 (values in µM)
[11] = Human immunodeficiency virus 1, MT4, Table 8, isolate 1.1001
[12] = Human immunodeficiency virus 1, MT4, Table 10 (values in µM), isolate L1001
[13] = Human immunodeficiency virus 1, MT4
[14] = Human immunodeficiency virus 1, MT4, Table 8, isolate V1081
[15] = Human immunodeficiency virus 1, MT4, Table 10 (values in µM), isolate V108l
[16] = Human immunodeficiency virus 1, MT4, Table 10 (values in µM), isolate Y181C

| Compound | IC50 (HIV-1 WT RT; HIV-1 WT RT, read-out: IC50) [nM] | IC50 (HIV-1 WT RT; [3]) [nM] | IC50 (HIV-1 WT RT; [5]) [nM] | inhibition at 1 µM (HIV-1 WT RT; [4]) [%] | EC50 (WT virus (NL4-3); [6]) [nM] | EC50 (NL4-3 (WT); [7]) [µM] | EC50 (NL4-3 (WT); [8]) [µM] | EC50 (HIV-1 variant K101E; [9]) [µM] | EC50 (HIV-1 variant K101E; [10]) [µM] | EC50 (HIV-1 variant K103N; [9]) [µM] | EC50 (HIV-1 variant K103N; [10]) [µM] | EC50 (HIV-1 variant L100I; [11]) [µM] | EC50 (HIV-1 variant L100I; [12]) [µM] | EC50 (HIV-1 variant M184l; [13]) [µM] | EC50 (HIV-1 variant V108I; [14]) [µM] | EC50 (HIV-1 variant V108I; [15]) [µM] | EC50 (HIV-1 variant Y181C; [16]) [µM] | EC50 (HIV-1 variant Y188H; [13]) [µM] | further results |
| --- | --- | --- | --- | --- | --- | --- | --- | --- | --- | --- | --- | --- | --- | --- | --- | --- | --- | --- | --- |
| 4-amino-1-(2,6-difluorobenzyl)-2-(2,6-difluorophenyl)benzimidazole [compound 53] | 280 | 280 | 280 |  |  |  |  |  |  |  |  |  |  |  |  |  |  |  | %inhibn (1µM) (HIV-1 WT RT; [4]): 69%; EC50 (WT virus (NL4-3); Table 7, concentration reducing cell killing or virus production by 50%, HIV-1 WT, read-out: EC50): 460 nM; EC50 (WT virus (NL4-3); Table 11, CEMSS/NL4-3, NRVC = reduction in viral CPE not seen (footnote), read-out: EC50): 460 nM; EC50 (NL4-3 (WT); Table 8, isolate N1.43, read-out: EC50): 0.5 µM; EC50 (NL4-3 (WT); Table 10 (values in µM), isolate NL4-3 (WT), listed as NH2, read-out: EC50): 0.68 µM and 0.4 µM; EC50 ([1]; Table 8, isolate 4XAZT /Y181C, read-out: EC50): > 10000 nM; EC50 (HIV-1 isolate 4xAZT; Table 8, isolate 4XAZT, read-out: EC50): 200 nM; EC50 (HIV-1 variant A98G; Table 8, isolate A9SG, read-out: EC50): 1500 nM; EC50 (HIV-1 variant K101E; Table 8, read-out: EC50): > 20 µM; EC50 (HIV-1 variant K103N; Table 8, read-out: EC50): > 20 µM; EC50 (HIV-1 variant L100I; Table 8, isolate 1.1001, read-out: EC50): 1.3 µM; EC50 (HIV-1 variant L74V; Table 8, isolate 1.74V, read-out: EC50): 300 nM; EC50 (HIV-1 variant M184l; Table 10 (values in µM), isolate M184l, read-out: EC50): 0.65 µM; EC50 (HIV-1 variant V106A; Table 8, isolate V 106A, read-out: EC50): > 20000 nM; EC50 (HIV-1 variant V108I; Table 8, isolate V1081, read-out: EC50): > 20 µM; EC50 (HIV-1 variant V179D; Table 8, isolate V179D, read-out: EC50): 6000 nM; EC50 (HIV-1 variant Y188C; Table 8, isolate Y 188C, read-out: EC50): 2.7 µM; EC50 (HIV-1 variant Y188C; Table 10 (values in µM), isolate Y188C, read-out: EC50): 2 µM; EC50 (HIV-1 variant Y188H; Table 10 (values in µM), isolate Y188H, read-out: EC50): > 50 µM; EC50 ([2]; Table 8, isolate 4XA7T L 1001, read-out: EC50): 300 nM |
| COc1cccc2c1nc(-c1c(F)cccc1F)n2Cc1c(F)cccc1F [compound 44, 1-(2,6-difluorobenzyl)-2-(2,6-difluorophenyl)-4-methoxylbenzimidazole] | 7.3 | 7.3 | 7.3 | 85 | 4.6 | 0.06 | 0.165 | 3.3 | 2.82 | > 20 | > 50 | 0.1 | 0.16 | 0.16 | 2.5 | 2.82 | 0.26 | 0.26 | IC50 (HIV-1 WT RT; WT RT, read-out: IC50): 7.3 nM; EC50 (WT virus (NL4-3); Human immunodeficiency virus 1, NL43, CEM-SS, Table 11, CEMSS/NL4-3, NRVC = reduction in viral CPE not seen (footnote), read-out: EC50): 60 nM; EC50 (WT virus (NL4-3); Human immunodeficiency virus 1, NL43, CEM-SS, cytopathic cell killing assay, HIV-1 WT, read-out: EC50): 4.6 nM; EC50 (HIV-1 isolate 4xAZT; Human immunodeficiency virus 1, MT4, Table 8, isolate 4XAZT): 6000 nM; EC50 (HIV-1 variant A98G; Human immunodeficiency virus 1, MT4, Table 8, isolate A9SG): 300 nM; activity against the K103N mutation / isolate (HIV-1 variant K103N; result in words, cytopathic cell killing assay): failed to show any activity; EC50 (HIV-1 variant L74V; Human immunodeficiency virus 1, MT4, Table 8, isolate 1.74V): 80 nM; EC50 (HIV-1 variant V106A; Human immunodeficiency virus 1, MT4, Table 8, isolate V 106A): 1400 nM; EC50 (HIV-1 variant V179D; Human immunodeficiency virus 1, MT4, Table 8, isolate V179D): 200 nM; EC50 (HIV-1 variant Y188C; Human immunodeficiency virus 1, MT4, Table 8, isolate Y 188C): 0.3 µM |
| CCc1cccc2c1nc(-c1c(F)cccc1F)n2Cc1c(F)cccc1F [compound 47, 1-(2,6-difluorobenzyl)-2-(2,6-difluorophenyl)-4-ethylbenzimidazole] |  |  |  |  |  | 1.1 | 0.9 | > 20 | > 50 | > 20 | > 50 | 0.6 | 2.48 | 0.96 | 3 | > 50 |  | 13.2 | IC50 (HIV-1 WT RT): 17500 nM; inhibition at 1 µM (HIV-1 WT RT): 50%; EC50 (WT virus (NL4-3); Human immunodeficiency virus 1, NL43, CEM-SS): 820 nM; EC50 [1, 13]: > 20000 nM; EC50 (HIV-1 isolate 4xAZT; [13]): 1000 nM; EC50 (HIV-1 variant A98G; [13]): 8000 nM; EC50 (HIV-1 variant L74V; [13]): 1500 nM; EC50 (HIV-1 variant V106A; [13]): > 20000 nM; EC50 (HIV-1 variant V179D; [13]): 1800 nM; EC50 (HIV-1 variant Y181C; [13]): 7.18 µM; EC50 (HIV-1 variant Y188C; [13]): 5.5 µM; EC50 [2, 13]: 600 nM |
| O=[N+]([O-])c1cccc2c1nc(-c1c(F)cccc1F)n2Cc1c(F)cccc1F [compound 48, 1-(2,6-difluorobenzyl)-2-(2,6-difluorophenyl)-4-nitrobenzimidazole] |  | 1880 |  | 51 | 2400 |  | 3.13 |  | > 50 |  | > 50 |  | 0.83 | 3.69 |  | > 50 | > 50 | > 50 |  |
